Reference: ChEMBL document CHEMBL1150221, “Isolation and structure determination of nostocyclopeptides A1 and A2 from the terrestrial cyanobacterium Nostoc sp. ATCC53789” (J Nat Prod, 2001)
Activity calls are given as the source filed them. No cut-off for these calls is given here.

How the values were obtained:
[1] = test system: KB; experiment: Cytotoxicity against human KB cells; assay type: functional, cell-based
[2] = test system: LoVo; experiment: Cytotoxicity against human LoVo cells; assay type: functional, cell-based
[3] = test system: Candida albicans; experiment: Antifungal activity against Candida albicans at 25 ug/disk; assay type: functional, organism-based
[4] = test system: Pseudomonas aeruginosa; experiment: […] activity against Pseudomonas aeruginosa at 25 ug/disk; assay type: functional, organism-based
[5] = test system: Mycobacterium tuberculosis; experiment: […] activity against Mycobacterium tuberculosis 25177 at 25 ug/disk; assay type: functional, organism-based
[6] = test system: Mycobacterium tuberculosis; experiment: […] activity against Mycobacterium tuberculosis 35818 at 25 ug/disk; assay type: functional, organism-based
[7] = Inhibition of protease
[8] = Inhibition of trypsin
[9] = Inhibition of chymotrypsin
[10] = biological target: Plasminogen (Homo sapiens, UniProt P00747); experiment: Inhibition of plasmin
[11] = Inhibition of elastase
[12] = biological target: T1, Papain (Carica papaya, UniProt P00784); experiment: Inhibition of papaya papain
T1 sequence (P00784 whole entry): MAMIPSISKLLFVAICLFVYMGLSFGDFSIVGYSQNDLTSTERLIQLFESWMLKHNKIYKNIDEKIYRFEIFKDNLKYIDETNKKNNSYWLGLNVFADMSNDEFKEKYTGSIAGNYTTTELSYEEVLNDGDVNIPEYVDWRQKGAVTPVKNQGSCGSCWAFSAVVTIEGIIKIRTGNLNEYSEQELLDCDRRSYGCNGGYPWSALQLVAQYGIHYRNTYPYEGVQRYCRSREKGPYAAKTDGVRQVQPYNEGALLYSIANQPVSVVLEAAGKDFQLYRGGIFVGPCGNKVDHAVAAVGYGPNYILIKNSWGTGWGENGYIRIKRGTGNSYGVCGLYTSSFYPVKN

[13] = biological target: Prothrombin (Homo sapiens, UniProt P00734); experiment: Inhibition of thrombin

Chain of Plasminogen (P00747 97-580 limits assumed): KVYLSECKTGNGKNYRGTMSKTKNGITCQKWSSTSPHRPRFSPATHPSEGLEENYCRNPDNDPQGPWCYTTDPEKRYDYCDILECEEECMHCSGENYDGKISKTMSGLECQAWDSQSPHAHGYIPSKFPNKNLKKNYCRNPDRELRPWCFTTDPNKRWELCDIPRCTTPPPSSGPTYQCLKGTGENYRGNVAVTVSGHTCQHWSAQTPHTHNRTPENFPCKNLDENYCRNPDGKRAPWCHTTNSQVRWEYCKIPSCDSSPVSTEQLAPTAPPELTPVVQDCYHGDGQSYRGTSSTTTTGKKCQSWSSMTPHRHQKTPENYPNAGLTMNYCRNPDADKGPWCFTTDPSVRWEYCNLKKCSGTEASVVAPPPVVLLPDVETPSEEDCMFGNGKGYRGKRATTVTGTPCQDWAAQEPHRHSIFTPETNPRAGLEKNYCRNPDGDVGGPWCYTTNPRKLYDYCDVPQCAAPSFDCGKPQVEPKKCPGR
Chain of Plasminogen (P00747 581-810 limits assumed): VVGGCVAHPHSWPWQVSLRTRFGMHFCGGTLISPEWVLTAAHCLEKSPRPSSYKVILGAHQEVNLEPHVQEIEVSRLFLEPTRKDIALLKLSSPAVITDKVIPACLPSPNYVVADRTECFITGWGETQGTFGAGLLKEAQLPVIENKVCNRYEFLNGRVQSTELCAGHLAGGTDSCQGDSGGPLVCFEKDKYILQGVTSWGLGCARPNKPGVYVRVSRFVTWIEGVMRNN

Compound	IC50 [1] [µM]	IC50 [2] [µM]	Activity [3]	Activity [4]	Activity [5]	Activity [6]	Activity [7]	IC50 [8] [µM]	IC50 [9] [µM]	IC50 [10] [µM]	IC50 [11] [µM]	IC50 [12] [µM]	IC50 [13] [µM]
CC[C@H](C)[C@@H]1NC(=O)[C@@H](CCC(N)=O)NC(=O)CNC(=O)[C@H](Cc2ccc(O)cc2)/N=C/[C@H](Cc2ccccc2)NC(=O)[C@@H]2C[C@H](C)CN2C(=O)[C@H](CO)NC1=O [NOSTOCYCLOPEPTIDE A2]	1	1	inactive	inactive	inactive	inactive	inactive	> 50	< 25	> 50	< 25	< 25	> 50
CC[C@H](C)[C@@H]1NC(=O)[C@@H](CCC(N)=O)NC(=O)CNC(=O)[C@H](Cc2ccc(O)cc2)/N=C/[C@H](CC(C)C)NC(=O)[C@@H]2C[C@H](C)CN2C(=O)[C@H](CO)NC1=O [NOSTOCYCLOPEPTIDE A1]	1	1	inactive	inactive	inactive	inactive	inactive	> 50	< 25	> 50	< 25	< 25	> 50
